{
  "source": "patent US20240216370A1",
  "about": "“TREATMENT OF CORNEAL VASCULARISATION” (VESTLANDETS INNOVASJONSSELSKAP AS, priority 2020, published 2024)",
  "key": {"OPDKD patient": {"test_system": "OPDKD patient", "assay": "Oral (systemic) imatinib treatment of an OPDKD patient, effect in the eye", "format": "in vivo, human", "settings": "systemic imatinib for almost one year, 6 months at maximal recommended dose of 800 mg"}, "PDGFRβ (N666Y)": {"target": "T1, PDGFRβ (N666Y) (Homo sapiens, UniProt P09619, N666Y)", "T1 construct": "Fibroblasts from affected individuals and healthy controls were obtained; endogenous in cells; host or cells: fibroblasts from OPDKD patients", "T1 sequence (P09619 33-1106 N666Y)": "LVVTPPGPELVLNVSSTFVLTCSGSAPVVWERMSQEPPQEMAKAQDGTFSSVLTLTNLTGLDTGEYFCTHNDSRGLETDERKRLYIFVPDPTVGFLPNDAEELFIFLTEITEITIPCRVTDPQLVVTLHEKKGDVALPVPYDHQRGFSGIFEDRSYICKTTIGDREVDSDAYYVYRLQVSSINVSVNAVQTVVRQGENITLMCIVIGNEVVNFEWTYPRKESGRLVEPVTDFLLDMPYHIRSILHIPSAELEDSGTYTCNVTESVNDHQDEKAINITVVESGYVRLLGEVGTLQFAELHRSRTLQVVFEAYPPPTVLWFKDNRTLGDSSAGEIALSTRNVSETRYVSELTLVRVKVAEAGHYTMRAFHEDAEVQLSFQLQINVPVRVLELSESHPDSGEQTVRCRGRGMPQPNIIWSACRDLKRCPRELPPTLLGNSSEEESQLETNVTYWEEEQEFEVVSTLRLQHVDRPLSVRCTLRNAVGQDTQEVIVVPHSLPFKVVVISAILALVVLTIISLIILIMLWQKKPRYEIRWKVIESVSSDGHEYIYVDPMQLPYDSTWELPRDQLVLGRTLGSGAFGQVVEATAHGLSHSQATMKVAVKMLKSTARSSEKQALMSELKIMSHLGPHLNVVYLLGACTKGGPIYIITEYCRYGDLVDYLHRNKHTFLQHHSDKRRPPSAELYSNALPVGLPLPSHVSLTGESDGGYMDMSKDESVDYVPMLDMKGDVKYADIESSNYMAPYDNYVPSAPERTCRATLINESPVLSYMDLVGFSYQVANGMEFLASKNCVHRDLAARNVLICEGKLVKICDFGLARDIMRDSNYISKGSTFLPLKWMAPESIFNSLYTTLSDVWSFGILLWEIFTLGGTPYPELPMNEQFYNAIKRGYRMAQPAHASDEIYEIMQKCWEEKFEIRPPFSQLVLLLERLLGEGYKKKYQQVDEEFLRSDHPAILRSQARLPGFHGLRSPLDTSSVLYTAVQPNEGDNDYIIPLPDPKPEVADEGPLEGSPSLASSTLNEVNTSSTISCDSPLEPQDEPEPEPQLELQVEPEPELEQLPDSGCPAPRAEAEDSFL", "assay": "ELISA analysis of phosphorylated PDGFRβ in OPDKD patient fibroblasts", "format": "cell-based", "protocol": "Fibroblasts from affected individuals and healthy controls were obtained. Transgenic HeLa cells were transduced with a murine retroviral vector containing the PDGFRβ (NM_002609.3) c.wt, c. 1996A>T (OPDKD) and c.1997A>G (a different activating mutation associated with severe Penttinen syndrome) variants.\nIn OPDKD, the affected parts of the body (corneas and skin, particular fingers and toes) are all exposed to variable temperatures. ^8 At a typical room temperature (20-22° C.) corneal temperatures lie around 32-34° and fall to around 30° C. as air temperatures reaches 0° C. ^9 We studied the effect of this physiological temperature difference on PDGFRβ auto-phosphorylation and signaling in OPDKD. Cells were either kept at 37° ° C. or incubated overnight at 32° C. […] For ELISA analysis of phosphorylated PDGFRβ, a DuoSet® IC Phospho-PDGFRβ kit (R&D systems) was used. Cell lysates were also subjected to immunoblot analysis with primary antibodies against downstream signaling partners: phospho-Ser473-AKT, phospho-Thr308-AKT, phospho-Tyr70-STAT1, STAT1, phospho-Tyr783-PLCγ1, PLCγ1, phospho-Thr202/Tyr204-MAPK3/ERK1 and MAPK3/ERK1 (all from Cell Signaling Technology). […]"}, "AKT": {"test_system": "AKT", "assay": "Immunoblot of downstream signaling partner AKT (phospho-Ser473, phospho-Thr308) in patient fibroblasts", "format": "cell-based, human", "settings": "0.1 μM imatinib", "quoted_text": "Cells were either kept at 37° ° C. or incubated overnight at 32° C. Cells were then left untreated or treated with 0.1 μM imatinib (STI571, Selleckchem) for 6 hours. For ELISA analysis of phosphorylated PDGFRβ, a DuoSet® IC Phospho-PDGFRβ kit (R&D systems) was used. Cell lysates were also subjected to immunoblot analysis with primary antibodies against downstream signaling partners: phospho-Ser473-AKT, phospho-Thr308-AKT, phospho-[MUT]-STAT1, STAT1, phospho-[MUT]-PLCγ1, PLCγ1, phospho-Thr202/Tyr204-MAPK3/ERK1 and MAPK3/ERK1 (all from Cell Signaling Technology)."}},
  "note": "Entries after “also recorded” stand apart in the source; their conditions may differ.",
  "data": [
    {"smiles": "Cc1ccc(NC(=O)c2ccc(CN3CCN(C)CC3)cc2)cc1Nc1nccc(-c2cccnc2)n1", "note": "[imatinib]", "values": [
      {"measurement": "effect of the drug on the eye of an OPDKD patient", "setting": "OPDKD patient", "value": "no effect; also recorded: without effect"},
      {"measurement": "sensitivity of OPDKD fibroblasts compared with Penttinen fibroblasts", "setting": "PDGFRβ (N666Y); OPDKD (N666Y) vs Penttinen (N666S) fibroblasts", "value": "less sensitive"},
      {"measurement": "effect on levels of P-PDGFRβ and downstream proteins", "setting": "PDGFRβ (N666Y); OPDKD fibroblasts, imatinib, 6 hours", "value": "clear, dose dependent effect"},
      {"measurement": "levels of phosphorylated PDGFRβ", "setting": "PDGFRβ (N666Y); patient fibroblasts, high doses of imatinib (1 μM)", "value": "normalization"},
      {"measurement": "phosphorylation of Ser473 and Thr308 AKT", "setting": "AKT", "value": "Normalization"}
    ]}
  ]
}
